SMILES strings stand for the structures.

This is an account of results in patent US20240299393A1, “SMALL MOLECULE DISRUPTORS OF PROTEIN INTERACTIONS IN HISTONE DEACETYLASE COMPLEXES” (Dana-Farber Cancer Institute, Inc., priority 2021, published 2024).

The assay has as its system mouse frontal cortex transcriptome. In words: RNA-seq of mouse frontal cortex after chronic treatment. The assay is classed as in vivo. As to the method: For the pilot RT-qPCR experiment, in addition to the vehicle condition (ethanol 100%/kolliphor/saline 0.9% in a proportion of 1:1:14.4; for the 50 mg/kg dose, 14 μL NaOH 1M were also added), three doses (mg/kg) of E6R were tested: 5, 15, and 50, with 4 (vehicle) or 3 (E6R) animals per group. A dose of 50 mg/kg was picked to conduct further experiments. For the RNA-Seq experiment, E6R was dissolved in a vehicle solution containing saline 55% v/v, DMSO 34% v/v, ethanol 5% v/v, kolliphor EL (Sigma-Aldrich, MO, USA) 5% v/v, NaOH 1M 1% v/v. The vehicle group received the same solution. Animals were injected daily by intraperitoneal (I.P.) injection with 5 μL/g of the solution (50 mg/kg of the drug or vehicle) at 11 am for 10 days. Animal wellness was verified by daily visual inspection and weighing. […] On the 11th day, animals were sacrificed by bleeding via heart puncture under carbon dioxide anesthesia. The brains were quickly removed and the bilateral frontal cortex (bregma 1.90 to 1.40 mm) was dissected followed by total RNA extraction. The spleens were also collected in the pilot RT-qPCR experiments.
Qiagen™ RNeasy mini kits (Valencia, CA) were used following the manufacturer's protocol. Extracted RNA was further purified using Qiagen™ RNeasy Mini columns to eliminate any trace of DNA, and dissolve in nuclease-free water. Purity of the RNA preparation was determined as the 260/280 nm ratio with expected values between 2 and 2.3. Samples were stored at −80° C. before being used for RT-qPCR (pilot experiment), or shipped to the GENEWIZ company on dry ice for library construction and RNA sequencing.
RNA integrity (RIN) and yield were assessed on an Agilent 2100 Bioanalyzer, and samples with RIN larger than 7 were selected. Prior to the RNA-Seq, ribosomal RNA was depleted from the samples using the RiboMinus™ Human/Mouse Transcriptome Isolation Kit (Thermo Fisher Scientific, Waltham, MA). All samples were sequenced on an Illumina Hi-Seq sequencer. ˜29 million 50 bp single-end reads per sample were obtained. Sequencing adapters were removed using Trimmomatic v.0.33 [Bolger et al 2014]. Quality control at each processing step was performed using the FastQC tool v0.11.2 (quality base calls, GC content distribution, duplicate levels, complexity level) [Andrews 2010]. The Mouse GRCm38/mm10 reference genome was obtained from UCSC Genome Browser Gateway (http://hgdownload.soe.ucsc.edu/goldenPath/mm10/bigZips/chromFa.tar.gz), and the corresponding gene annotation file was obtained from Ensemble (ftp://ftp.ensembl.org/pub/release-83/gtf/mus_musculus/Mus_musculus.GRCm38.83.gtf.gz) on Feb. 20, 2016. Only autosomes, mitochondrial, and sex chromosomes were used. Reads were aligned using the subread v.1.6.2 aligner [Liao et al 2013]. Gene counts were obtained for each sample based on the last […] version of Ensembl transcriptome (v.87) using the featureCounts v.1.2.6 software [Liao et al 2014]. RNA-Seq counts were preprocessed and analyzed for differential expression using the edgeR v.3.24.3 [Robinson et al 2010] R package. P-values for differentially expressed genes were corrected using a false discovery rate (FDR) multiple testing correction method [Benjamini & Hochberg 1995]. Functional enrichment analysis (GO, KEGG) was performed using enrichr [Chen et al 2013]. Enrichment analysis using custom signatures was performed using hypergeometric test in the clusterProfiler v.3.10.1 R package [Yu et al 2012]. […]

As for `C[C@@H](NC(=O)c1c(O)n2ccccc2nc1=O)c1ccccc1` [E6R, 4-hydroxy-2-oxo-N—((R)-1-phenylethyl)-3,4-dihydro-2H-pyrido[, 2-a]pyrimidine-3-carboxamide], the “fewer transcriptomic changes compared to conditional Hdac2 deletion” value (50 mg/kg ten days) is “approximately 80 fold”. For the same compound, the “differentially expressed genes between HDAC2 cKO+vehicle and HDAC2 cKO+compound” value (HDAC2 cKO mice, 50 mg/kg) is listed as “Nine”. Moreover, the “genes with altered expression in mouse FC relative to WT+vehicle” value (WT mice, 50 mg/kg I.P. daily 10 days, FDR=0.3, p<0.05, Example 9) is on record as 39 genes. Also, under “WT mice, 50 mg/kg ten days, Example 11”, the “genes significantly affected in the FC” value is 48 genes. Further, the “Homer1 expression in FC” value (WT mice, 50 mg/kg, vs WT+vehicle) is listed as “downregulated”.
